Laboratory results published in patent publication US20190284220A1, “CRYSTAL FORM OF DAPAGLIFLOZIN INTERMEDIATE AND PREPARATION METHOD THEREFOR” (Jiangsu Hansoh Pharmaceutical Group Co., Ltd., priority 2016, published 2019).

Assay: Stability study of crystal form A
Assay type: physicochemical
Details: for Crystal form / Purity: 25° C.
Text: Experimental Example 1 Stability Study

CCOc1ccc(Cc2cc([C@]3(OCC)O[C@H](CO)[C@@H](O)[C@H](O)[C@H]3O)ccc2Cl)cc1 [crystal form A, (2S,3R,4S,5S,6R)-2-(4-chloro-3-(4-ethoxybenzyl)phenyl)-2-ethoxy-6-(methylhydroxy)tetrahydro-2H-pyran-3,4,5-triol]
Crystal form (0 day): Crystal form A
Purity (0 day): 99.45%
Crystal form (1 month): Crystal form A
Purity (1 month): 99.41%
Crystal form (3 months): Crystal form A
Purity (3 months): 99.43%
Crystal form after drying (dried under vacuum at 50° C. for 3 hours): not changed
Crystal form after storage (room temperature (25° C.), 3 months): not changed
